Reference: patent US4254127A, “1,3-Dihydro-1-[(1-piperidinyl)alkyl]-2H-benzimidazol-2-one derivatives” (Janssen Pharmaceutica, N.V., priority 1980, dated 1981)

Columns and labels:
[1] = test system: lesions induced by compound 48/80; settings: rats, known serotonin antagonists; cited from earlier work
[2] = test system: lesions induced by compound 48/80; assay: gastric lesion test: lesions induced by compound 48/80; type: in vivo, rats; settings: Rattus norvegicus
[3] = test system: apomorphine-induced emesis; assay: apomorphine test in dogs (APO-dog): protection from emesis; type: in vivo, beagle dogs; settings: Canis lupus familiaris, sc, apomorphine 0.31 mg/kg s.c. 1 hour after compound, dose protecting 50% from emesis
Text: 2. The apomorphine test in dogs (APO-dog). The method used is described by P. A. J. Janssen and C. J. E. Niemegeers in Arzneim.-Forsch.

[4] = test system: tryptamine-induced bilateral tonic seizures; assay: combined test in rats: tryptamine (TRY)-induced bilateral tonic seizures; type: in vivo, adult male Wistar rats; settings: sc, 1.5 h; s.c.; rat; tryptamine 40 mg/kg i.v. at 90 minutes; dose protecting 50% of animals; read-out: ED0 (TRY)-rat
[5] = test system: apomorphine-induced phenomena: agitation and stereotypic chewing; assay: combined test in rats: apomorphine (APO)-induced agitation and stereotypic chewing; type: in vivo, adult male Wistar rats; settings: sc, 0.5 h; s.c.; rat; apomorphine hydrochloride 1.25 mg/kg i.v. 30 minutes after compound; dose protecting 50% of animals

Compound | prevention of cyanosis of ears and extremities [1] | prevention of lesions in the glandular area of the stomach and abnormal gastric distension [1] | ED50 [2] [mg/kg] | ED50 [3] [mg/kg] | ED50 [4] [mg/kg] | ED50 [5] [mg/kg]
NC(=O)C1(N2CCCCC2)CCN(CCCC(=O)c2ccc(F)cc2)CC1 [pipamperone] | prevent completely | prevent completely |  |  |  | 
O=C(CC1CCN(CCn2c(=O)[nH]c3ccc(Cl)cc32)CC1)c1ccc(F)cc1 [6-Cl, H, H, (CH2)2, CO, 4-FC6 H4, base] |  |  | 0.63 | 0.5 | 1.25 | 2.5
O=C(CCCN1CCC2(CC1)C(=O)NCN2c1ccccc1)c1ccc(F)cc1 [spiperone] | prevent completely | prevent completely |  |  |  | 
O=c1[nH]c2ccccc2n1CCCN1CCC(CC(O)c2ccc(F)cc2)CC1 (stereo not shown) |  |  | 0.08 | 0.5 |  | 
O=C(CC1CCN(CCCn2c(=O)[nH]c3ccccc32)CC1)c1ccc(F)cc1 [H, H, H, (CH2)3, CO, 4-FC6 H4, base, 1-[3-[4-[2-(4-fluorophenyl)-2-oxoethyl]-1-piperidinyl]propyl]-1,3-dihydro-2H-benzimidazol-2-one] |  |  | 0.08 |  | 1.25 | 
O=C(CC1CCN(CCn2c(=O)[nH]c3ccccc32)CC1)c1ccc(Cl)cc1 [H, H, H, (CH2)2, CO, 4-ClC6 H4, base] |  |  | 0.16 | 0.5 | 2.5 | 0.63
O=C(CC1CCN(CCn2c(=O)[nH]c3cc(Cl)ccc32)CC1)c1ccc(F)cc1 [5-Cl, H, H, (CH2)2, CO, 4-FC6 H4, base] |  |  | 0.63 | 0.12 | 5 | 2.5
CC[C@@H](CO)NC(=O)[C@@H]1C=C2c3cccc4c3c(cn4C)C[C@H]2N(C)C1 [methysergide] | prevent completely | prevent completely |  |  |  | 
O=C(CC1CCN(CCn2c(=O)[nH]c3cc(F)ccc32)CC1)c1ccc(F)cc1 [5-F, H, H, (CH2)2, CO, 4-FC6 H4, base] |  |  | 0.31 |  | 0.63 | 0.16
Cc1ccc2c(c1)[nH]c(=O)n2CCN1CCC(CC(=O)c2ccc(F)cc2)CC1 [5-CH3, H, H, (CH2)2, CO, 4-FC6 H4, base] |  |  | 0.63 | 0.08 | 0.63 | 
CN1CCN2c3ccccc3Cc3ccccc3C2C1 (stereo not shown) [mianserin] | prevent completely | prevent completely |  |  |  | 
CN(C)CCCSc1ccccc1NC(=O)/C=C/c1ccccc1 [cinanserin] | prevent completely | prevent completely |  |  |  | 
Cn1c(=O)n(CCCN2CCC(CC(=O)c3ccc(F)cc3)CC2)c2ccccc21 [H, H, CH3, (CH2)3, CO, 4-FC6 H4, base] |  |  | 0.31 |  | 1.25 | 
O=C(CC1CCN(CCn2c(=O)[nH]c3ccccc32)CC1)c1ccc(F)cc1 [H, H, H, (CH2)2, CO, 4-FC6 H4, base, 1-[2-[4-[2-(4-fluorophenyl)-2-oxoethyl]-1-piperidinyl]ethyl]-1,3-dihydro-2H-benzimidazol-2-one] |  |  | 0.01 | 0.03 | 0.31 | 0.31
CN1CCC(=C2c3ccccc3C=Cc3ccccc32)CC1 [cyproheptadine] | prevent completely | prevent completely |  |  |  | 
CN1C[C@H](CNC(=O)OCc2ccccc2)C[C@@H]2c3cccc4c3c(cn4C)C[C@H]21 [metergoline] | prevent completely | prevent completely |  |  |  | 
Cn1c(=O)n(CCN2CCC(CC(=O)c3ccc(F)cc3)CC2)c2ccccc21 [H, H, CH3, (CH2)2, CO, 4-FC6 H4, base] |  |  | 0.31 | 0.63 | 0.63 | 0.63
CN1CCC(=C2c3ccccc3CCc3sccc32)CC1 [pizotifen] | prevent completely | prevent completely |  |  |  | 
CC(CCn1c(=O)[nH]c2ccccc21)N1CCC(CC(=O)c2ccc(F)cc2)CC1 (stereo not shown) [H, H, H, [drawing 21], CO, 4-FC6 H4, base, 1-[3-[4-[2-(4-fluorophenyl)-2-oxoethyl]-1-piperidinyl]butyl]-1,3-dihydro-2H-benzimidazol-2-one] |  |  | 1.25 |  | 5 | 
Cc1ccc(C(=O)CC2CCN(CCn3c(=O)[nH]c4ccccc43)CC2)cc1 [H, H, H, (CH2)2, CO, 4-CH3C6 H4, base] |  |  | 0.63 | 0.5 | 2.5 | 
CC(=O)n1c(=O)n(CCN2CCC(CC(=O)c3ccc(F)cc3)CC2)c2ccccc21 [H, H, CH3 CO, (CH2)2, CO, 4-FC6 H4, base, 1-acetyl-3-[2-[4-[2-(4-fluorophenyl)-2-oxoethyl]-1-piperidinyl]ethyl]-1,3-dihydro-2H-benzimidazol-2-one] |  |  | 0.08 | 1 | 1.25 | 1.25
O=C(CC1CCN(CCn2c(=O)[nH]c3ccccc32)CC1)c1ccccc1 [H, H, H, (CH2)2, CO, C6 H5, base] |  |  | 0.31 | 0.25 | 2.5 | 0.63
